According to patent US20160030530A1, “SULFORAPHANE/SULFORAPHANE PRECURSOR AND PHYTOSTEROL/PHYTOSTANOL COMPOSITIONS” (NUTRAMAX LABORATORIES, INC., priority 2013, published 2016):

What was measured:
[1] = system: broccoli sprout-derived myrosinase; assay: Consumption of glucoraphanin as a function of the ascorbic acid concentration (hydrolysis by myrosinase); type: biochemical
Experimental: About 250 mg of broccoli seed extract containing about 12% (w/w) glucoraphanin were subjected to hydrolysis by a fixed concentration of broccoli sprout-derived myrosinase in the presence of variable concentration of ascorbic acid, ranging from 0 to 600 μmoles/Liter. The reaction mixtures were thermostated at 38° C.; aliquots were withdrawn every 15 minutes for 60 minutes, and concentration of glucoraphanin determined chromatographically. The rate of glucoraphanin consumption was interpreted as the rate its conversion to sulforaphane. Graphical representation of glucoraphanin content reduction as a function of increasing ascorbic acid concentration results in a series of linear plots; the slopes of the linear regression lines reflect the rate of glucoraphanin consumption, in μmoles/minute. It is apparent that in the presence of 600 μmoles/Liter concentration of ascorbic acid, the reaction rate increased 13-fold relative to that which proceeded in the absence of modulatory effects of ascorbic acid.

myrosinase [2] = assay: Conversion of glucoraphanin to sulforaphane in the presence of Simulated Intestinal Fluid; type: biochemical, broccoli; details: 0.25 to 1.00 mmol/Liter ascorbic acid, 38° C., 2 hours
Experimental: Simulated Intestinal Fluid (SIF) powder, a commercially supplied concentrate closely approximating the human intestinal content in terms of composition, pH and ionic strength, was used. The experiment utilized a USP Dissolution Apparatus 2 (paddles), where into six dissolution vessels 500 mL of Simulated Intestinal Fluid was dispensed, along with 150 mg of freeze-dried broccoli sprout powder as a source of myrosinase. In vessels 1-4, the concentration of ascorbic acid was varied from 0.25 to 1.00 mmol/Liter; in vessel 5, in addition to 1 mmol/Liter ascorbic acid, 3.125 g of pancreatin (8×USP) was suspended; in vessel 6, in addition to 1 mmol/Liter ascorbic acid, and 3.125 g of pancreatin (8×USP), a doubled amount of freeze-dried broccoli sprout powder (300 mg) was added. After vessels were brought to 38° C., 250 mg of glucoraphanin-rich (12%, w/w) broccoli seed extract was added to each, and the resulting suspensions were stirred at 75 RPM for 2 hours. Aliquots were withdrawn every 15 minutes, and assayed for sulforaphane.

myrosinase [3] = assay: Equimolar conversion of glucoraphanin to sulforaphane, role of ascorbic acid in modulating myrosinase activity; type: biochemical, broccoli; details: control sample, without ascorbic acid
Experimental: A two-part experiment was conducted to further elucidate the role of ascorbic acid in modulating myrosinase activity. […] A control sample contained no ascorbic acid, and the enzymatic conversion proceeded unassisted by a co-factor. PART 1. […] PART 2. While keeping the amount of broccoli seed extract fixed at 250 mg, the concentration of ascorbic acid was varied from 0.4 mmol/Liter to 3.8 mmol/Liter. The table below presents glucoraphanin and sulforaphane expressed in μmoles.

chondrocytes = details: IL-1β-induced NF-κB pathway; cited from earlier work

Structure (SMILES): O=C1O[C@H]([C@@H](O)CO)C(O)=C1O [Ascorbic Acid, ascorbic acid]
- Slope (rate of glucoraphanin consumption) ([1]; 0 μM ascorbic acid, linear regression 0-60 min): -0.09293 µmol/min
- Glucoraphanin (GR) content ([1]; 0 μM ascorbic acid, time 15 min, 38° C.): 92.24 µmol
- Glucoraphanin (GR) content ([1]; 0 μM ascorbic acid, time 30 min, 38° C.): 90.71 µmol
- Glucoraphanin (GR) content ([1]; 0 μM ascorbic acid, time 45 min, 38° C.): 89.44 µmol
- Glucoraphanin (GR) content ([1]; 0 μM ascorbic acid, time 60 min, 38° C.): 87.79 µmol
- Increase of reaction rate relative to absence of ascorbic acid ([1]; 600 μmoles/Liter ascorbic acid, 38° C.): 13 fold
- Yield of sulforaphane versus ascorbic acid concentration (myrosinase [2]): direct correlation between larger yield of sulforaphane and higher concentrations of ascorbic acid

Structure (SMILES): C[S+]([O-])CCCC/C(=N\OS(=O)(=O)O)S[C@@H]1O[C@H](CO)[C@@H](O)[C@H](O)[C@H]1O (stereo partly drawn) [glucoraphanin, 4-methylsulfinylbutyl glucosinolate]
- Conversion of glucoraphanin to sulforaphane (amount consumed versus amount produced) (myrosinase [3]): equimolar conversion of glucoraphanin to sulforaphane

Structure (SMILES): CC[C@H](/C=C/[C@@H](C)[C@H]1CC[C@H]2[C@@H]3CC=C4C[C@@H](O)CC[C@]4(C)[C@H]3CC[C@]12C)C(C)C [stigmasterol, 3β-stigmasta-5,22,-dien-3-ol]
- Pro-inflammatory and matrix degradation mediators (MMP-3, MMP-13, ADAMTS-4, PGE2) (chondrocytes): inhibits several pro-inflammatory and matrix degradation mediators
